Measured values: patent publication US20170368054A1, “Treatment of Glaucoma Using Laquinimod” (Teva Pharmaceutical Industries, Ltd., priority 2013, published 2017)

What was measured:
[1] = tested on: rat model of chronic ocular hypertension (OHT)/glaucoma; assay: Intraocular pressure (IOP) measurement, Tono-Pen Vet tonometer, rat OHT model; type: in vivo, Brown Norway rats (Rattus norvegicus); conditions: average of 5 weekly post-HSI measurements, groups matched for Mean ΔIOP
Protocol: For each IOP measurement time-point following the 2nd HSI, the IOP elevation was calculated as the difference between the IOP in the left eye with OHT and that in the non-OHT right eye (ΔIOP). The ΔIOP for the 5 weekly post-HSI IOP measurements were averaged and constituted the Mean ΔIOP for each animal. […] Other animals were removed from the study. Baseline IOP measurements were taken before the initial dose administration. After application of topical anesthesia (0.5% Proparacaine HCl Ophthalmic Solution), IOP was measured on conscious rats on both eyes using a Tono-Pen Vet tonometer (Reichert, Inc.; Depew, N.Y.). Ten (10) IOP readings are recorded from each eye and averaged. IOP measurements were taken around the same time (e.g., between 10 a.m. and 2 p.m.) across measurement time-points to minimize the circadian variability of IOP. IOP measurements were taken once weekly starting one week after the second HSI until euthanasia (a total of 5 measurements). After application of topical anesthesia (0.5% Proparacaine HCl Ophthalmic Solution), IOP was measured on conscious rats on both eyes using a Tono-Pen Vet tonometer (Reichert, Inc.; Depew, N.Y.). For each time-point, ten (10) IOP readings were recorded from each eye and averaged. IOP measurements were taken around the same time (e.g., between 10 a.m. and 2 p.m.) across measurement time-points to minimize the circadian variability of IOP. The IOP measurements were evaluated as follows: For each time-point following the HSI, the IOP elevation was calculated as the difference between the level in the left eye with OHT and that in the normal right eye (ΔIOP). The ΔIOP of the 5-weekly post-HSI IOP measurements were averaged and constitute the Mean ΔIOP for each animal. For each group, ten (10) animals with a sustained IOP elevation in the OHT eye were selected from a larger pool and groups are matched for the Mean ΔIOP. Other animals were removed from the study and euthanized. […] For each time-point following the HSI, the IOP elevation was calculated as the difference between the level in the left eye with OHT and that in the normal right eye (ΔIOP). The ΔIOP of the 5-weekly post-HSI IOP measurements were averaged and constitute the Mean ΔIOP for each animal. For each group, ten (10) animals with a sustained IOP elevation in the OHT eye were selected from a larger pool and groups were matched for the Mean ΔIOP. Other animals were removed from the study and euthanized.

[2] = tested on: genes related to antigen presentation and corresponding inflammatory pathways; conditions: mainly via the NFkB pathway (Gurevich, 2010); cited from earlier work
[3] = tested on: Brown Norway rats; conditions: rat, in vivo
Protocol: Prior to any experimental procedure, clinical observations were performed daily, body weights were obtained, intraocular pressure (IOP) was measured and detailed ocular examinations were performed on both eyes.
Clinical observations were performed daily according to Table 6 below:
Animals were weighed weekly prior to initiation of dosing. The first day the rats are weighed was designated as Study Day 1, and the beginning of Study Week 1.
Animals selected for the study were examined prior to the initial administration of the test or the control articles to ensure that both eyes were free of abnormality, damage, and disease. Both eyes were examined, scored and recorded prior to the initial dose administration using a hand held slit-lamp and a direct ophthalmoscope or the surgical microscope according to the Classification System for Grading Ocular Lesions as described in Table 7, and the Ocular Posterior Segment Scoring Scale of Table 8. Posterior segment examination was performed after topical application of Tropicamide in the conscious state, or after the rats are anesthetized with isoflorane inhalation. Only rats showing no signs of eye irritation, ocular defects, or preexisting corneal injury were used in the study. […]
Both eyes were examined and scored at one week after the second HSI and on the day of euthanasia, for a total of two times. […]

For CCN(C(=O)c1c(O)c2c(Cl)cccc2n(C)c1=O)c1ccccc1 [Laquinimod], the “Mean ΔIOP (OHT minus Non-OHT) (Mean±SD)” value ([1]; Group 1, topical 1% laquinimod) was 9.1±2.2 mmHg, the “Mean ΔIOP (OHT minus Non-OHT) (Mean±SD)” value ([1]; Group 3, topical 4% laquinimod) was 9.3±2.7 mmHg and the “Mean ΔIOP (OHT minus Non-OHT) (Mean±SD)” value ([1]; Group 4, topical 0.25% laquinimod) was 9.2±1.5 mmHg. For the same compound, the “Mean ΔIOP (OHT minus Non-OHT) (Mean±SD)” value ([1]; Group 5, oral 0.1% laquinimod) was 9.1±2.9 mmHg, the “suppression of genes related to antigen presentation and corresponding inflammatory pathways” value [2] was “induced suppression” and the “Weight gained between day of dosing and day of euthanasia, groups compared” value [3] was “did not differ”.
